According to patent US10745382B2 (BRISTOL-MYERS SQUIBB COMPANY, priority 2015, dated 2020):

Biological target: T1, PD-1/PD-L1 (Homo sapiens, UniProt Q9NZQ7)
T1 construct: made in house; host or cells: HEK293T
Assay: PD-1/PD-L1 Homogenous Time-Resolved Fluorescence (HTRF) binding assay
Settings: PD-L1-His 10 nM, PD-1-Ig 20 nM; numeric IC50; read-out: Range or IC50
Summary of the method: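 Binding measured in dPBS with 0.1% BSA and 0.05% Tween-20, detected by HTRF with europium cryptate anti-Ig (1 nM final) and APC anti-His (20 nM final) added over the binding reaction. Counter-assays used human PD-1-Ig/PD-L2-His (20 and 5 nM) and CD80-His/PD-L1-Ig (100 and 10 nM).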

T1 sequence (Q9NZQ7 with tags, fused parts or gaps): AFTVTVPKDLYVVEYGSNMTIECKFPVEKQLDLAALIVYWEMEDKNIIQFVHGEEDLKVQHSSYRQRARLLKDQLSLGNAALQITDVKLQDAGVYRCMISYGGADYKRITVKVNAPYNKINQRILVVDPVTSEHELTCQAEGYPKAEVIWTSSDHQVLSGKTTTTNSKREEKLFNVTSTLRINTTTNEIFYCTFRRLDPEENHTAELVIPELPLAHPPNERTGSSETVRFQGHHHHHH

IC50 [nM] | Compound
1.7 | Cc1c(OCCCN2CC[C@@H](O)C2)cccc1-c1cccc(COc2cc(OCc3cncc(C#N)c3)c(CNC(CO)CO)cc2Cl)c1Cl [Example 2300, (R)-5-((4-chloro-5-((2-chloro-3′-(3-(3-hydroxypyrrolidin-1-yl)propoxy)-2′-methyl-[1,1′-biphenyl]-3-yl)methoxy)-2-(((1,3-dihydroxypropan-2-yl)amino)methyl)phenoxy)methyl)nicotinonitrile]

Same assay, conditions: PD-L1-His 10 nM, PD-1-Ig 20 nM; value given as range class; read-out: Range or IC50

Compound | IC50 [nM]
Cc1c(COc2cc(OCc3cncc(C#N)c3)c(CN[C@](C)(CO)C(=O)O)cc2Cl)cccc1-c1cc(C#Cc2ccccc2)cc(OCCCN2CC[C@@H](O)C2)c1 [Example 3045, (R)-2-((5-chloro-2-((5-cyanopyridin-3-yl)methoxy)-4-((3′-(3-((R)-3-hydroxypyrrolidin-1-yl)propoxy)-2-methyl-5′-(phenylethynyl)-[1,1′-biphenyl]-3-yl)methoxy)benzyl)amino)-3-hydroxy-2-methylpropanoic Acid] | 2010 to 10000
CC(CO)(CO)NCc1cc(Cl)c(OCc2cccc(-c3cccc(OCCCNC[C@H](O)CO)c3Cl)c2Cl)cc1OCc1cccc(C#N)c1 [Example 2060, (S)-3-((4-chloro-5-((2,2′-dichloro-3′-(3-((2,3-dihydroxypropyl)amino)propoxy)-[1,1′-biphenyl]-3-yl)methoxy)-2-(((1,3-dihydroxy-2-methylpropan-2-yl)amino)methyl)phenoxy)methyl)benzonitrile] | 0.21 to 10
Cc1c(CCCCN2CC[C@@H](O)C2)cccc1-c1cccc(COc2cc(OCc3cncc(C#N)c3)c(CNC(C)(CO)CO)cc2Cl)c1C [Example 4065, (R)-5-((4-chloro-2-(((1,3-dihydroxy-2-methylpropan-2-yl)amino)methyl)-5-((3′-(4-(3-hydroxypyrrolidin-1-yl)butyl)-2,2′-dimethyl-[1,1′-biphenyl]-3-yl)methoxy)phenoxy)methyl)nicotinonitrile] | 0.21 to 10
Cc1c(COc2cc(OCc3cncc(C#N)c3)c(CN3CCC[C@H]3C(=O)O)cc2Cl)cccc1-c1cccc(C(=O)N2CCOCC2)c1C [Example 4049, (5-chloro-2-((5-cyanopyridin-3-yl)methoxy)-4-((2,2′-dimethyl-3′-(morpholine-4-carbonyl)-[1,1′-biphenyl]-3-yl)methoxy)benzyl)-L-proline] | 100 to 2000
Cc1c(COc2cc(OCc3cncc(C#N)c3)c(CNC(CO)CO)cc2Cl)cccc1-c1cccc(OCCCN2CCC(CO)CC2)c1C [Example 2294, 5-((4-chloro-2-(((1,3-dihydroxypropan-2-yl)amino)methyl)-5-((3′-(3-(4-(hydroxymethyl)piperidin-1-yl)propoxy)-2,2′-dimethyl-[1,1′-biphenyl]-3-yl)methoxy)phenoxy)methyl)nicotinonitrile] | 0.21 to 10
COC(=O)C1(O)CCN(CCCOc2cccc(-c3cccc(COc4cc(OCc5cncc(S(C)(=O)=O)c5)c(CN[C@@](C)(CO)C(=O)O)cc4Cl)c3C)c2C)CC1 [Example 1039, (S)-2-((5-chloro-4-((3′-(3-(4-hydroxy-4-(methoxycarbonyl)piperidin-1-yl)propoxy)-2,2′-dimethyl-[1,1′-biphenyl]-3-yl)methoxy)-2-((5-(methylsulfonyl)pyridin-3-yl)methoxy)benzyl)amino)-3-hydroxy-2-methylpropanoic Acid] | 0.21 to 10
Cc1c(COc2cc(OCc3cncc(C#N)c3)c(CNC(C)(CO)CO)cc2Cl)cccc1-c1cccc(OCCCN2CC[C@@H](O)C2)c1C [Example 2324, (R)-5-((4-chloro-2-(((1,3-dihydroxy-2-methylpropan-2-yl)amino)methyl)-5-((3′-(3-(3-hydroxypyrrolidin-1-yl)propoxy)-2,2′-dimethyl-[1,1′-biphenyl]-3-yl)methoxy)phenoxy)methyl)nicotinonitrile] | 0.21 to 10
Cc1c(COc2cc(OCc3cncc(C#N)c3)c(CN3CCCC[C@H]3C(=O)O)cc2Cl)cccc1-c1cccc(OCCCNCCc2ccncc2)c1C [Example 2210, (2S)-1-(5-chloro-2-((5-cyanopyridin-3-yl)methoxy)-4-((2,2′-dimethyl-3′-(3-(2-(pyridin-4-yl)ethylamino)propoxy)biphenyl-3-yl)methoxy)benzyl)piperidine-2-carboxylic Acid] | 0.21 to 10
Cc1c(COc2cc(OCc3cncc(C#N)c3)c(CN3CCCC[C@H]3C(=O)O)cc2Cl)cccc1-c1cccc(OCCCN2CC[C@H](F)C2)c1C [Example 2247, (2S)-1-(5-chloro-2-((5-cyanopyridin-3-yl)methoxy)-4-((3′-(3-((S)-3-fluoropyrrolidin-1-yl)propoxy)-2,2′-dimethylbiphenyl-3-yl)methoxy)benzyl)piperidine-2-carboxylic Acid] | 0.21 to 10
Cc1c(COc2cc(OCc3cncc(C#N)c3)c(CN[C@@](C)(CO)C(=O)O)cc2Cl)cccc1-c1cccc(OCCCNC[C@H](O)CO)c1C [Example 2286, (S)-2-((5-chloro-2-((5-cyanopyridin-3-yl)methoxy)-4-((3′-(3-(((S)-2,3-dihydroxypropyl)amino)propoxy)-2,2′-dimethyl-[1,1′-biphenyl]-3-yl)methoxy)benzyl)amino)-3-hydroxy-2-methylpropanoic Acid] | 0.21 to 10
Cc1ccc(OCCCN2CC[C@@H](O)C2)c(C)c1-c1cccc(COc2cc(OCc3cncc(C#N)c3)c(CN[C@](C)(CO)C(=O)O)cc2Cl)c1C [Example 3029, (2R)-2-((5-chloro-2-((5-cyanopyridin-3-yl)methoxy)-4-((3′-(3-((R)-3-hydroxypyrrolidin-1-yl)propoxy)-2,2′,6′-trimethyl-[1,1′-biphenyl]-3-yl)methoxy)benzyl)amino)-3-hydroxy-2-methylpropanoic Acid] | 0.21 to 10
Cc1c(COc2cc(OCc3cncc(C#N)c3)c(CN[C@@H](CO)C(=O)O)cc2Cl)cccc1-c1cccc(OCCCN2CCC(O)C2)c1C (stereo in doubt) [Example 3004, (S)-2-((5-chloro-2-((5-cyanopyridin-3-yl)methoxy)-4-((3′-(3-((R)-3-hydroxypyrrolidin-1-yl)propoxy)-2,2′-dimethyl-[1,1′-biphenyl]-3-yl)methoxy)benzyl)amino)-3-hydroxypropanoic Acid] | 0.21 to 10

Second part, the compound after the results:

IC50 [nM] | Compound
0.21 to 10 | Cc1c(COc2cc(OCc3cncc(C#N)c3)c(CN3CCCC[C@H]3C(=O)O)cc2Cl)cccc1-c1cccc(OCCCN2C[C@@H](C)O[C@@H](C)C2)c1C [Example 3049, (S)-1-(5-chloro-2-((5-cyanopyridin-3-yl)methoxy)-4-((3′-(3-((2S,6R)-2,6-dimethylmorpholino)propoxy)-2,2′-dimethyl-[1,1′-biphenyl]-3-yl)methoxy)benzyl)piperidine-2-carboxylic Acid]
0.21 to 10 | Cc1c(COc2cc(OCc3cncc(C#N)c3)c(CNC(CO)(CO)CO)cc2Cl)cccc1-c1cccc(OCCCN2CC[C@@H](O)C2)c1C [Example 2285, (R)-5-((4-chloro-2-(((1,3-dihydroxy-2-(hydroxymethyl)propan-2-yl)amino)methyl)-5-((3′-(3-(3-hydroxypyrrolidin-1-yl)propoxy)-2,2′-dimethyl-[1,1′-biphenyl]-3-yl)methoxy)phenoxy)methyl)nicotinonitrile]
0.21 to 10 | CC(CO)(CO)NCc1cc(Cl)c(OCc2cccc(-c3cccc(OCCCN4CC[C@@H](O)C4)c3Cl)c2Cl)cc1OCc1cncc(C#N)c1 [Example 2053, (R)-5-((4-chloro-5-((2,2′-dichloro-3′-(3-(3-hydroxypyrrolidin-1-yl)propoxy)-[1,1′-biphenyl]-3-yl)methoxy)-2-(((1,3-dihydroxy-2-methylpropan-2-yl)amino)methyl)phenoxy)methyl)nicotinonitrile]
0.21 to 10 | Cc1c(COc2cc(OCc3cncc(C#N)c3)c(CN(C)C(C)(CO)CO)cc2Cl)cccc1-c1cccc(OCCCN2CC[C@@H](O)C2)c1Cl [Example 2076, (R)-5-((4-chloro-5-((2′-chloro-3′-(3-(3-hydroxypyrrolidin-1-yl)propoxy)-2-methyl-[1,1′-biphenyl]-3-yl)methoxy)-2-(((1,3-dihydroxy-2-methylpropan-2-yl)(methyl)amino)methyl)phenoxy)methyl)nicotinonitrile]
10 to 100 | Cc1c(COc2cc(OCc3cncc(C#N)c3)c(CNC(C)(CO)CO)cc2Cl)cccc1-c1cccc(C(=O)N2CCCC2)c1C [Example 4039, 5-((4-chloro-2-(((1,3-dihydroxy-2-methylpropan-2-yl)amino)methyl)-5-((2,2′-dimethyl-3′-(pyrrolidine-1-carbonyl)-[1,1′-biphenyl]-3-yl)methoxy)phenoxy)methyl)nicotinonitrile]
0.21 to 10 | Cc1c(COc2cc(OCc3cncc(C#N)c3)c(CNCCc3ccncc3)cc2Cl)cccc1-c1cccc(OCCCNCCc2ccncc2)c1Cl [Example 2010, 5-((4-chloro-5-((2′-chloro-2-methyl-3′-(3-((2-(pyridin-4-yl)ethyl)amino)propoxy)-[1,1′-biphenyl]-3-yl)methoxy)-2-(((2-(pyridin-4-yl)ethyl)amino)methyl)phenoxy)methyl)nicotinonitrile]
0.21 to 10 | CC(=O)NC1CCN(CCCOc2cccc(-c3cccc(COc4cc(OCc5cncc(C#N)c5)c(CNC(CO)CO)cc4Cl)c3C)c2Cl)CC1 [Example 2062, N-(1-(3-((2-chloro-3′-((2-chloro-5-((5-cyanopyridin-3-yl)methoxy)-4-(((1,3-dihydroxypropan-2-yl)amino)methyl)phenoxy)methyl)-2′-methyl-[1,1′-biphenyl]-3-yl)oxy)propyl)piperidin-4-yl)acetamide]
0.21 to 10 | COC(=O)C1CN(CCCOc2cccc(-c3cccc(COc4cc(OCc5cncc(S(C)(=O)=O)c5)c(CN[C@](C)(CO)C(=O)O)cc4Cl)c3C)c2C)CC1O (stereo partly drawn) [Example 1073, (2R)-2-((5-chloro-4-((3′-(3-(3-hydroxy-4-(methoxycarbonyl)pyrrolidin-1-yl)propoxy)-2,2′-dimethyl-[1,1′-biphenyl]-3-yl)methoxy)-2-((5-(methylsulfonyl)pyridin-3-yl)methoxy)benzyl)amino)-3-hydroxy-2-methylpropanoic Acid]
